Some test systems named below: Malme-3M; NCI-H226; NCI-H23; U-251; OVCAR-3; SK-MEL-28; UACC-257; SW-620; SK-OV-3; OVCAR-5; OVCAR-4; EKVX; HOP-62; NCI-H522; HL-60; SNB-75; NCI/ADR-RES; A549; SF-539; MOLT-4.
Test in all cases: NCI-60 cell line screen, 48 h

The values that follow come from ChEMBL document CHEMBL1201862, “PubChem BioAssay data set” (2004).

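Grown in 96-well plates, cells were treated for 48 hours with each compound at five concentrations. Insufficient inhibition: endpoint recorded as highest concentration tested. The concentration for 50% growth inhibition is given as GI50.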 Active and inactive are the calls of the source. No stated cut-off is given here; in the data, active = GI50 up to about 1.1 µM and inactive = higher.

Consider `COc1cc(/C=C/c2ccc(OC)c(OC)c2)oc(=O)c1`, for which the GI50 in the assay with Malme-3M was > 250 µM (inactive); with NCI-H226 it was > 250 µM (inactive); with NCI-H23, 203 µM (inactive); in the assay with U-251, 199 µM (inactive); with OVCAR-3, > 250 µM (inactive); in the assay with SK-MEL-28, > 250 µM (inactive). Further, the GI50 with UACC-257 was > 250 µM (inactive); with SW-620 it was > 250 µM (inactive); in the assay on SK-OV-3, > 250 µM (inactive); with OVCAR-5, > 250 µM (inactive); in the assay on OVCAR-4 it was > 250 µM (inactive); with EKVX, > 116 µM (inactive). Besides, the GI50 with HOP-62 was 124 µM (inactive); with NCI-H522 it was > 195 µM (inactive); in the assay on HL-60, > 91.6 µM (inactive); with SNB-75, 73.3 µM (inactive); with NCI/ADR-RES, > 250 µM (inactive); in the assay with A549 it was > 250 µM (inactive). For the same compound, the GI50 in the assay on SF-539 was 213 µM (inactive); in the assay with MOLT-4, > 250 µM (inactive).
In the case of `CCOC(=O)C1=C(C)N2CCCOC2(C)C(C(=O)OC)C1c1cccc([N+](=O)[O-])c1` (stereo not drawn), the GI50 is > 100 µM (inactive) in the assay with NCI-H226; > 100 µM (inactive) in the assay with NCI-H23; 42.9 µM (inactive) in the assay with OVCAR-3; > 100 µM (inactive) in the assay with SK-MEL-28; 86.5 µM (inactive) in the assay on UACC-257; > 100 µM (inactive) in the assay with SW-620. The GI50 is 50 µM (inactive) in the assay on EKVX; 99.1 µM (inactive) with HOP-62; 32.1 µM (inactive) with HL-60; 13.6 µM (inactive) in the assay with SNB-75; 64.3 µM (inactive) in the assay on A549; > 100 µM (inactive) in the assay with SF-539. Moreover, in the assay on MOLT-4, the GI50 is 34.3 µM (inactive).
On to `CCOC(=O)c1ccc(C)c(/N=N/N(C)C)c1`, for which the GI50 with Malme-3M, in the assay with NCI-H226, with NCI-H23, in the assay on U-251, with OVCAR-3 and in the assay on SK-MEL-28 was > 100 µM (inactive) throughout. In addition, the GI50 with UACC-257, with SW-620, in the assay on SK-OV-3, with OVCAR-5, with OVCAR-4 and in the assay with EKVX was > 100 µM (inactive) in each case. For the same compound, the GI50 with HOP-62, with NCI-H522, with HL-60, in the assay with SNB-75, with A549 and with SF-539 was > 100 µM (inactive) each time. Also, the GI50 in the assay with MOLT-4 is > 100 µM (inactive).
Consider `CCCCNS(=O)(=O)c1n[nH]c(=O)[nH]c1=O`, for which the GI50 with Malme-3M, in the assay with NCI-H226, in the assay with NCI-H23, in the assay with U-251, in the assay with OVCAR-3 and in the assay on SK-MEL-28 was > 100 µM (inactive) in each case. Also, the GI50 with SW-620 is > 100 µM (inactive); in the assay on SK-OV-3 it was 17.6 µM (inactive); in the assay on OVCAR-5 it was > 100 µM (inactive); in the assay on OVCAR-4, > 100 µM (inactive); with EKVX, > 100 µM (inactive); in the assay with HOP-62 it was 23.5 µM (inactive). For the same compound, the GI50 in the assay on NCI-H522 is > 100 µM (inactive); with HL-60, > 100 µM (inactive); in the assay on SNB-75, 82.6 µM (inactive); in the assay on NCI/ADR-RES, > 100 µM (inactive); in the assay with A549, > 100 µM (inactive); with SF-539 it was > 100 µM (inactive). Moreover, the GI50 with MOLT-4 is > 100 µM (inactive).
As for `CC1Cc2cc(O)c(O)cc2-c2cc(O)c(O)cc2CC1C` (stereo not drawn), the GI50 with Malme-3M was 5.62 µM (inactive); in the assay with NCI-H226 it was 24.3 µM (inactive); in the assay on NCI-H23, 14.8 µM (inactive); in the assay on U-251, 15.2 µM (inactive); in the assay on OVCAR-3 it was 10.9 µM (inactive); in the assay with SK-MEL-28, 11.9 µM (inactive). Besides, the GI50 in the assay on UACC-257 was 12.3 µM (inactive); with SW-620, 20.5 µM (inactive); in the assay on SK-OV-3 it was 36.8 µM (inactive); in the assay with OVCAR-5, 18.9 µM (inactive); in the assay on OVCAR-4 it was 15.6 µM (inactive); in the assay with EKVX, 18.5 µM (inactive). Further, the GI50 is 17.9 µM (inactive) in the assay on HOP-62; 9.57 µM (inactive) with NCI-H522; > 100 µM (inactive) in the assay with SNB-75; 12.6 µM (inactive) in the assay with NCI/ADR-RES; 31.6 µM (inactive) with A549; 5.85 µM (inactive) with SF-539. The GI50 with MOLT-4 was 14 µM (inactive).
On to `COc1ccc(CN/C=N/C(C#N)=C(\N)C#N)cc1OC`, for which the GI50 with Malme-3M, with NCI-H226, with NCI-H23, in the assay on U-251, with OVCAR-3 and in the assay on SK-MEL-28 was > 100 µM (inactive) in each case. Moreover, the GI50 in the assay with UACC-257, with SW-620, in the assay on SK-OV-3, in the assay with OVCAR-5, in the assay on OVCAR-4 and in the assay with EKVX was > 100 µM (inactive) throughout. Further, the GI50 in the assay with HOP-62 was > 100 µM (inactive); in the assay on NCI-H522 it was > 100 µM (inactive); in the assay on HL-60, > 100 µM (inactive); with SNB-75, 76.7 µM (inactive); in the assay with NCI/ADR-RES, > 100 µM (inactive); with A549 it was > 100 µM (inactive). Besides, the GI50 with SF-539 and with MOLT-4 was > 100 µM (inactive) each time.
Consider `CCOC(=O)Cn1c(=O)c(C)cn(COCCO)c1=O`, for which the GI50 with Malme-3M was > 100 µM (inactive); in the assay with NCI-H226, 0.155 µM (active); in the assay on NCI-H23 it was > 100 µM (inactive); with U-251 it was > 100 µM (inactive); with OVCAR-3, > 100 µM (inactive); with SK-MEL-28, > 100 µM (inactive). Moreover, the GI50 in the assay on UACC-257, in the assay on SW-620, in the assay with OVCAR-5, with OVCAR-4, with EKVX and in the assay with HOP-62 was > 100 µM (inactive) in each case. Also, the GI50 in the assay with NCI-H522, in the assay on HL-60, in the assay with SNB-75, with NCI/ADR-RES, in the assay with A549 and in the assay with SF-539 was > 100 µM (inactive) throughout. Besides, in the assay on MOLT-4, the GI50 was > 100 µM (inactive).
Regarding `Cc1ccc(S(=O)(=O)NC(=N)N(C)N=O)cc1`, the GI50 in the assay on Malme-3M, in the assay on NCI-H226, with NCI-H23, in the assay with U-251, with OVCAR-3 and in the assay with SK-MEL-28 was > 100 µM (inactive) throughout. For the same compound, the GI50 in the assay with UACC-257 is > 100 µM (inactive); with SW-620, > 100 µM (inactive); in the assay on SK-OV-3, 18.5 µM (inactive); in the assay with OVCAR-5 it was > 100 µM (inactive); with OVCAR-4, > 100 µM (inactive); in the assay with EKVX, 85.9 µM (inactive). The GI50 in the assay with HOP-62 was > 100 µM (inactive); in the assay on NCI-H522, > 100 µM (inactive); in the assay with HL-60, > 100 µM (inactive); in the assay on SNB-75 it was 38.2 µM (inactive); in the assay on NCI/ADR-RES it was > 100 µM (inactive); in the assay on A549 it was 19.1 µM (inactive). The GI50 with SF-539 and with MOLT-4 was > 100 µM (inactive) in each case.
For the compound `Cc1cccc2ns[s+]c12`, the GI50 was > 100 µM (inactive) in the assay with Malme-3M; > 100 µM (inactive) in the assay with NCI-H226; > 100 µM (inactive) in the assay with NCI-H23; 33.9 µM (inactive) in the assay with U-251; > 100 µM (inactive) with OVCAR-3; > 100 µM (inactive) with SK-MEL-28. Moreover, the GI50 in the assay on UACC-257 was > 100 µM (inactive); in the assay on SW-620, 17.4 µM (inactive); in the assay on SK-OV-3, > 100 µM (inactive); with OVCAR-5 it was > 100 µM (inactive); with OVCAR-4, > 100 µM (inactive); in the assay with EKVX, > 100 µM (inactive). Further, the GI50 in the assay on HOP-62 was > 100 µM (inactive); in the assay on HL-60, 36.3 µM (inactive); with SNB-75, 59 µM (inactive); with A549, > 100 µM (inactive); in the assay with SF-539, 50.7 µM (inactive); in the assay with MOLT-4, 38.5 µM (inactive).
Consider `C[n+]1c2ccccc2c(NC(CS)C(=O)O)c2ccccc21` (stereo not drawn), for which the GI50 in the assay with Malme-3M is 24.2 µM (inactive); in the assay on NCI-H226, 45 µM (inactive); in the assay on NCI-H23, 32 µM (inactive); in the assay on U-251, 24.5 µM (inactive); with OVCAR-3, 17.7 µM (inactive); in the assay on UACC-257 it was 33.7 µM (inactive). The GI50 was 39.3 µM (inactive) with SW-620; 23.3 µM (inactive) in the assay on SK-OV-3; 74.1 µM (inactive) with OVCAR-5; 29.8 µM (inactive) in the assay with OVCAR-4; 24.4 µM (inactive) with EKVX; 30.3 µM (inactive) with HOP-62. Besides, the GI50 with NCI-H522 is 20.3 µM (inactive); with HL-60, 17.6 µM (inactive); with SNB-75 it was 24.2 µM (inactive); in the assay with A549 it was 22.6 µM (inactive); in the assay on SF-539 it was 20.7 µM (inactive); in the assay on MOLT-4, 13.8 µM (inactive).
On to `Cc1ccc(NC(Nc2ccc(C)cc2C)=C(C(Cl)=C(Cl)Cl)[N+](=O)[O-])c(C)c1`, for which the GI50 in the assay on Malme-3M is 16.9 µM (inactive); in the assay on NCI-H226, 14.6 µM (inactive); in the assay on NCI-H23 it was 6.22 µM (inactive); in the assay on OVCAR-3, 15.4 µM (inactive); in the assay on SK-MEL-28, 19.9 µM (inactive); with UACC-257, 15.9 µM (inactive). Also, the GI50 was 16.8 µM (inactive) with SW-620; 20 µM (inactive) in the assay with SK-OV-3; 15.7 µM (inactive) in the assay with OVCAR-4; 15.1 µM (inactive) in the assay on EKVX; 16.9 µM (inactive) in the assay on HOP-62; 11.1 µM (inactive) in the assay on NCI-H522. In addition, the GI50 was 4.12 µM (inactive) with HL-60; 9.35 µM (inactive) in the assay with SNB-75; 7.21 µM (inactive) with NCI/ADR-RES; 12.6 µM (inactive) in the assay with A549; 21.3 µM (inactive) with SF-539; 10.7 µM (inactive) in the assay on MOLT-4.
